Results from ChEMBL document CHEMBL1201862, “PubChem BioAssay data set” (2004).
Activity calls are given as the source filed them.

Key:
[1] = target: T1, Zinc finger protein mex-5 (Caenorhabditis elegans, UniProt Q9XUB2); test: MEX-5/TCR-2 RNA interaction inhibitors, dose response, biochemical, C. elegans, fluorescence polarization (AID 1960)
T1 sequence (Q9XUB2 whole entry): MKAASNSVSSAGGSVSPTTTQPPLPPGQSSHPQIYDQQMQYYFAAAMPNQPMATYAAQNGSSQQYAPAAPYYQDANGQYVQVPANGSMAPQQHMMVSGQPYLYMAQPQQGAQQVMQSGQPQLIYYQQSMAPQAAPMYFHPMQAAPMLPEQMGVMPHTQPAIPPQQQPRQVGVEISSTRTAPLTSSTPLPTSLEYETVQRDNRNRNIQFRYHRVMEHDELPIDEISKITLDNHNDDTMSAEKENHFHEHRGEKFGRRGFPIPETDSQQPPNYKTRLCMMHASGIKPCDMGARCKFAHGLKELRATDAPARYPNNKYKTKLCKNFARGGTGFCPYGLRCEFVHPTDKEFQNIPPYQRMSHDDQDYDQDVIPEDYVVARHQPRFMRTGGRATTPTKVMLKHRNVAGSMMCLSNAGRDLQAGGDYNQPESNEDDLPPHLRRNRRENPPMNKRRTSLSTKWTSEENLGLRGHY

[2] = HeLa cell cytotoxicity, dose response, cytotoxicity control for MgcRacGAP inhibitor project (AID 624300); format: functional
[3] = human group III sPLA2 inhibitors, dose response, biochemical, QFRET, IC50 (AID 743457);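 further: green fluorescence rise as the enzyme cleaves BODIPY PC-A2 in liposomes; potency for inhibition of the enzyme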
Nonstructural protein 1 = Nonstructural protein 1 (Influenza A virus, UniProt Q194T2); format: functional, Influenza A virus (A/California/07/2009(H1N1))
[4] = Escherichia coli growth inhibition, dose response, counter-screen for MEX-5/POS-1 RNA-binding inhibitor project, luminescence, NEB5alpha (AID 1959); format: functional
[5] = target: T2, RNA-binding protein pos-1 (Caenorhabditis elegans, UniProt G5EF15); test: inhibitors of POS-1/mex-3 RNA binding, dose response, biochemical, fluorescence polarization (AID 1964);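 further: purified POS-1 fused to maltose binding protein made in E. coli; potency of compounds blocking POS-1 binding to fluorescent RNA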
T2 sequence (G5EF15 whole entry): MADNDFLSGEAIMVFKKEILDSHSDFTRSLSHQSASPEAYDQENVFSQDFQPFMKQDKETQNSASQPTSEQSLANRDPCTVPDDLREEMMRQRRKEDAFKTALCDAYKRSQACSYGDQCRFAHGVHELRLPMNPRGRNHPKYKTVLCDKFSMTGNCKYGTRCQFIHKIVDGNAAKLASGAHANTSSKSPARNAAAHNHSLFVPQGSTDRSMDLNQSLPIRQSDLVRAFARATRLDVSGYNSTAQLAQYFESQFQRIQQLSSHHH

[6] = target: T3, Rac GTPase-activating protein 1 (Homo sapiens, UniProt Q9H0H5); test: MgcRacGAP GTPase-activating activity inhibitors, confirmation, biochemical, ADP Hunter fluorescence, primary and confirmatory (AID 624330); format: functional
T3 sequence (Q9H0H5 whole entry): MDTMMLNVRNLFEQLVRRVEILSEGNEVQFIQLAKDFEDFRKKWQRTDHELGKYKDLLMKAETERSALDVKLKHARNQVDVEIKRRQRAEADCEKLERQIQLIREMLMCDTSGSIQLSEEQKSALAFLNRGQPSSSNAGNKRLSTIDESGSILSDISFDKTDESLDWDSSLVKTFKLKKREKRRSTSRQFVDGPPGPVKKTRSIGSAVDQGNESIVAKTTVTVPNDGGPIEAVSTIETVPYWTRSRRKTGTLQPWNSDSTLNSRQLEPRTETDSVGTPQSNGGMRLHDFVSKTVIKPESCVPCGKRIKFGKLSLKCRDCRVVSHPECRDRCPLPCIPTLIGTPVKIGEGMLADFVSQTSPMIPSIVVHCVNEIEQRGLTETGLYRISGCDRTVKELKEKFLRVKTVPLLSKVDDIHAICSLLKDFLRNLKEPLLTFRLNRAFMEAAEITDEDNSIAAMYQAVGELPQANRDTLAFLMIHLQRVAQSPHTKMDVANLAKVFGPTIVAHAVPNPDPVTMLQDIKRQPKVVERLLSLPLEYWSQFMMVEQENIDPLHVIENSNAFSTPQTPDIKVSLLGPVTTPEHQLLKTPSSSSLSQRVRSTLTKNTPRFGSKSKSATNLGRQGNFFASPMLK

Leucine aminopeptidase = target: T4, Leucine aminopeptidase (Plasmodium falciparum 3D7, UniProt Q8IL11); test: P. falciparum M17LAP inhibitors, primary screen, biochemical, fluorogenic H-Leu-NHMec substrate, 1536-well (AID 1619); format: functional
T4 sequence (Q8IL11 whole entry): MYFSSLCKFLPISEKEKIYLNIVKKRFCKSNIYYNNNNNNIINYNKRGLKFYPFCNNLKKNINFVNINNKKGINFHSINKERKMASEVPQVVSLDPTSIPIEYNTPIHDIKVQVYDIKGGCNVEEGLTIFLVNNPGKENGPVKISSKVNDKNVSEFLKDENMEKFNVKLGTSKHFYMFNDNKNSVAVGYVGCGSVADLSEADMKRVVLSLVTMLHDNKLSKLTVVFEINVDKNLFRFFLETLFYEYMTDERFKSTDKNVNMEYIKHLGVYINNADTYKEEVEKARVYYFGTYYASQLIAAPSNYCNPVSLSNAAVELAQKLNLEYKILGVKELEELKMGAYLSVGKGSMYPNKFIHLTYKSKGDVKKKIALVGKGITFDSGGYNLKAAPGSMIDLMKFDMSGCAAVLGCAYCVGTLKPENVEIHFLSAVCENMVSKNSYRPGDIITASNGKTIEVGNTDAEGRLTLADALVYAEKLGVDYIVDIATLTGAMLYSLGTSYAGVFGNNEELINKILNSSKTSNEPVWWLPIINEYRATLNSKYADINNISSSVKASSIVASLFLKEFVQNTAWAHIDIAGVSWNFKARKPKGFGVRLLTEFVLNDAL

Danio rerio = test: In Vivo Angiogenesis Dose-Response Confirmation. [Related pubchem assays: 732 (Assay preceding this confirmatory assay.)]; format: functional, organism-based
[7] = Fluorescence Cell-Based Dose Response to Identify Inhibitors of Thrombin Receptor-Activating Peptide SFLLRN-Mediated P-Selectin Induction on Platelets. [Related pubchem assays: 1663 (Primary HTS), 1889 (retest at dose ), 1891 (counterscreen), 1678 (Project Summary)]; format: functional
[8] = target: Luciferin 4-monooxygenase (Photinus pyralis, UniProt P08659); test: firefly luciferase enzyme inhibitors, dose response, biochemical, luminescence (AID 1891)
[9] = Luminescence Cell-Based Dose Confirmation HTS to Identify Inhibitors of Platelet Dense Granule Release. [Related pubchem assays: 1663 (Primary HTS), 1678 (Summary of Project)]; format: functional
Genome polyprotein = Genome polyprotein (Hepatitis C virus, UniProt Q2Q167); test: HCV core protein dimerization inhibitors, dose response, biochemical, TR-FRET (AID 2159); design: species or system Hepacivirus hominis;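 further: blocks dimerization of HCV core protein measured by TR-FRET between tagged core106 pairs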
Sequence of Genome polyprotein (Q2Q167 whole entry): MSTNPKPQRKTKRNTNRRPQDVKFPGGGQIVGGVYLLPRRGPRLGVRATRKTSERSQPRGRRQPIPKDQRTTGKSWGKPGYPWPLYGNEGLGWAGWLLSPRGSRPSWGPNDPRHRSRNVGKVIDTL

Sequence of Luciferin 4-monooxygenase (P08659 whole entry): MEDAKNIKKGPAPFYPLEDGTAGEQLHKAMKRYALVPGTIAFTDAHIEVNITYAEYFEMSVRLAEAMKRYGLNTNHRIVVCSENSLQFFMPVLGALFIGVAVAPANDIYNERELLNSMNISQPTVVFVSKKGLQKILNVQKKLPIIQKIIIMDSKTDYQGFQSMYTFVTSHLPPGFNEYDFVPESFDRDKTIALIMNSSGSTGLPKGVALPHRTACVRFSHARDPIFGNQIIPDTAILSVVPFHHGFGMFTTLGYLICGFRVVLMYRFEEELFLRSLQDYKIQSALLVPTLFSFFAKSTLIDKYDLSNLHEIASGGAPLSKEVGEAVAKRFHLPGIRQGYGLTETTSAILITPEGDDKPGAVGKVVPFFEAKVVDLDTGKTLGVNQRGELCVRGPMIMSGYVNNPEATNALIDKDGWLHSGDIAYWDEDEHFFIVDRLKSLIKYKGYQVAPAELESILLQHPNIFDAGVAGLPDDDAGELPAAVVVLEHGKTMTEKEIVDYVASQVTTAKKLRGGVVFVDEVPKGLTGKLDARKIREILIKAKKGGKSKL
Sequence of Nonstructural protein 1 (Q194T2 whole entry): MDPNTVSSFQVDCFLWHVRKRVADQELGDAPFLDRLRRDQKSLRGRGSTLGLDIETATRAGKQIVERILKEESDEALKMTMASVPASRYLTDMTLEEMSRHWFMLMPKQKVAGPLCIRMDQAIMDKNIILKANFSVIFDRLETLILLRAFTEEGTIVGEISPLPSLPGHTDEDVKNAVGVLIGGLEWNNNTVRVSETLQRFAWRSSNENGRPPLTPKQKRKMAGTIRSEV

CC[n+]1c(/C=C/c2ccc(N(C)C)cc2)ccc2ccccc21
EC50 [1]: > 300 µM (not active) | CC50 [2]: 39.7 µM (active) | IC50 [3]: 34 µM (inactive) | IC50 (Nonstructural protein 1): 18.9 µM (active) | EC50 [4]: 37.8 µM (active) | EC50 [5]: > 300 µM (not active) | IC50 [6]: 46.6 µM (active) | IC50 (Leucine aminopeptidase): 110 µM (active)

O=C1Nc2ccc(F)cc2/C1=C1/Nc2ccccc2/C1=N\O
IC50 (Danio rerio): 0.38 µM (not active)

CCC(=O)Nc1cccc(NC(=O)c2ccccc2Cl)c1
EC50 [7]: < 30 µM (active) | EC50 [8]: > 112 µM (not active) | EC50 [9]: 3.42 µM (active)

Cc1ccc(-c2nc(=S)c3c(n2Cc2ccco2)CC(C)(C)OC3)cc1
IC50 (Genome polyprotein): > 49.8 µM (not active)
